Test results from patent publication US20260101897A1, “PLANT ENVIRONMENTAL STRESS TOLERANCE IMPROVEMENT AGENT AND ENVIRONMENTAL STRESS TOLERANCE IMPROVEMENT METHOD” (priority 2022, published 2026).

Experiments:
Assay type in all cases: in vivo
wheat = test: Evaluation Example 10: tolerance to ultraviolet stress, leaf mortality; conditions: for Environmental stress suppressing rate: ultraviolet stress Yes
Method: EGT (Examples 12 and 13, Comparative Examples 37 and 38) or GB (Comparative Examples 35, 36, 39, and 40) was prepared so as to have a concentration shown in Table 10 below. EGT and GB were commercially available products, and pure water was used as a solvent.
(§1) 5 mL of pure water was added to 9-cm petri dishes on which filter paper was placed, and 10 wheat seeds were seeded per petri dish. They were located in a growth chamber set at room temperature of 22° C., and the light period was 16 hours and the dark period was 8 hours. The light conditions were set such that the light intensity was 5000 lx in the central part under irradiation with the fluorescent lamp.
On the 7th day after seeding, pure water in the petri dish was removed, 5 mL of EGT or 5 mL of GB was added to the petri dish, and one day after that, ultraviolet stress was applied by exposure for one hour under irradiation with an ultraviolet lamp (GL-15, manufactured by Toshiba Corporation) with the intensity of ultraviolet radiation of a wavelength of 254 nm set to 550 μW/cm^−2.
The dead leaves were counted 6 days after the ultraviolet stress was applied, and the leaf mortality rate was evaluated as an index of physiological disorder. The leaf mortality rate and the environmental stress suppressing rate were calculated according to the following formulas.

radish (Akamaru Hatsuka) = test: Evaluation Example 7: tolerance to drying stress, leaf mortality; conditions: for Leaf mortality rate: test compound 0.5 mM (50 mL), water supply stopped 7 days twice; for Leaf mortality rate / Environmental stress suppressing rate: drying stress Yes; for Environmental stress suppressing rate: test compound 0.5 mM
Method: EGT and GB were commercially available products, and pure water was used as a solvent. In a plastic pot having a diameter of 135 mm and a height of 110 mm, 1 kg of granular soil (Kumiai horticultural soil) was placed, and 5 individual radish (Akamaru Hatsuka) was seeded per pot. They were managed in a greenhouse set at room temperature of 25° C. EGT in an amount of 50 mL or GB in an amount of 50 mL was added on the 22nd day after seeding, and water supply was stopped for 7 days. After cultivation under water supply for 7 days, drying stress was applied by stopping water supply for 7 days again. The dead leaves of radish were counted after the drying stress was applied, and the leaf mortality rate was evaluated as an index of physiological disorder. The leaf mortality rate and the environmental stress suppressing rate were calculated according to the following formulas. [formula] [formula]

arugula = test: Evaluation Example 15: tolerance to low temperature stress, leaf wilting; conditions: for Environmental stress suppressing rate: low temperature stress Yes
Method: EGT (Examples 19 and 20, Comparative Examples 66 and 67) or GB (Comparative Example 64, 65, 68 and 69) was prepared so as to have a concentration shown in Table 15 below. EGT and GB were commercially available products, and pure water was used as a solvent.
as §1, with “1 mL” for “5 mL”, “to 3.5-cm” for “to 9-cm”, “and 5 arugula” for “and 10 wheat”
On the 4th day after seeding, pure water in the petri dish was removed, and then 1 mL of EGT or 1 mL of GB was added, and 24 hours after that, low temperature stress was applied by exposure to an environment of 4° C. for 48 hours.
The number of wilted arugula leaves was evaluated 3 days after the low temperature stress was applied. The leaf wilting rate and the environmental stress suppressing rate were calculated according to the following formulas.

[1] = test system: Arabidopsis thaliana (Col-0); test: Evaluation Example 4: tolerance to high temperature stress, plant mortality; conditions: for Environmental stress suppressing rate: high temperature stress Yes
Method: EGT (Example 5 and Comparative Example 13) or GB (Comparative Example 12 and Comparative Example 14) was prepared so as to have a concentration shown in Table 4 below. EGT and GB were commercially available products, and pure water was used as a solvent.
In a plastic pot having a diameter of 60 mm and a height of 55 mm, 80 mL of culture soil (manufactured by Hanagokoro Co., Ltd.) was put, and one individual Arabidopsis thaliana (Col-0) was seeded per pot. Plastic deep dishes each having a diameter of 160 mm and a height of 28 mm were prepared, and four pots were respectively placed therein.
They were located in a growth chamber set at room temperature of 22° C., and the light period was 16 hours and the dark period was 8 hours. The light conditions were set such that the light intensity was 5000 lx in the central part under irradiation with the fluorescent lamp. Water supply was conducted from the bottom, and the water level was set at about 5 mm. On the 41st day after seeding, 50 mL of EGT or 50 mL of GB was added, and one day after that, high temperature stress was applied by exposure to an environment of 42° C. for 3 hours.
The surviving plants were counted 12 days after the high temperature stress was applied, and the plant mortality rate was evaluated as an index of physiological disorder. The mortality rate and the environmental stress suppressing rate were calculated according to the following formulas.

[2] = test system: strawberry (wild strawberry); test: Evaluation Example 14: tolerance to freezing stress, plant mortality; conditions: for Environmental stress suppressing rate: freezing stress Yes
Method: EGT (Example 18, Comparative Example 60) or GB (Comparative Examples 59 and 61) was prepared so as to have the concentration shown in Table 14 below. EGT and GB were commercially available products, and pure water was used as a solvent.
as §1, with “10” for “10 wheat”, “seeds of strawberry (wild strawberry)” for “seeds”, “per” for “per petri”
On the 15th day after seeding, pure water in the petri dish was removed, and then 5 mL of EGT or 5 mL of GB was added, and 9 days after that, freezing stress was applied by exposure to an environment of −20° C. for 20 minutes.
The surviving plants were counted 3 days after the freezing stress was applied, and the mortality rate of the plants was evaluated as an index of physiological disorder. The mortality rate and the environmental stress suppressing rate were calculated according to the following formulas.

[3] = test compound 0.1 mM (5 mL), ultraviolet stress Yes (254 nm, one hour), 6 days after stress
[4] = test compound 0.1 mM, ultraviolet stress No
[5] = test compound 1 mM (5 mL), ultraviolet stress Yes (254 nm, one hour), 6 days after stress
[6] = test compound 1 mM, ultraviolet stress No
[7] = test compound 0.1 mM (1 mL), low temperature stress Yes (4° C. for 48 hours), 3 days after stress
[8] = test compound 0.1 mM, low temperature stress No
[9] = test compound 1 mM (1 mL), low temperature stress Yes (4° C. for 48 hours), 3 days after stress
[10] = test compound 1 mM, low temperature stress No
[11] = test compound 0.5 mM (50 mL), high temperature stress Yes (42° C. for 3 hours), 12 days after stress
[12] = test compound 0.5 mM, high temperature stress No
[13] = test compound 0.1 mM (5 mL), freezing stress Yes (−20° C. for 20 minutes), 3 days after stress
[14] = test compound 0.1 mM, freezing stress No

C[N+](C)(C)[C@@H](Cc1c[nH]c(=S)[nH]1)C(=O)[O-] [EGT, L-(+)-ergothioneine]
Leaf mortality rate (wheat; [3]): 34%
Leaf mortality rate (wheat; [4]): 1%
Environmental stress suppressing rate (wheat; test compound 0.1 mM): 36%
Leaf mortality rate (wheat; [5]): 23%
Leaf mortality rate (wheat; [6]): 0%
Environmental stress suppressing rate (wheat; test compound 1 mM): 57%
Leaf mortality rate (radish (Akamaru Hatsuka)): 17%
Environmental stress suppressing rate (radish (Akamaru Hatsuka)): 71%
Leaf wilting rate (arugula; [7]): 0%
Leaf wilting rate (arugula; [8]): 0%
Environmental stress suppressing rate (arugula; test compound 0.1 mM): 100%
Leaf wilting rate (arugula; [9]): 0%
Leaf wilting rate (arugula; [10]): 0%
Environmental stress suppressing rate (arugula; test compound 1 mM): 100%
Mortality rate [1, 11]: 25%
Mortality rate [1, 12]: 0%
Environmental stress suppressing rate ([1]; test compound 0.5 mM): 67%
Mortality rate [2, 13]: 29%
Mortality rate [2, 14]: 0%
Environmental stress suppressing rate ([2]; test compound 0.1 mM): 54%

C[N+](C)(C)CC(=O)[O-] [GB, glycine betaine, reference compound]
mortality rate due to ultraviolet stress, result in words (wheat; GB 1 mM and 0.1 mM, ultraviolet stress): hardly suppressed
Leaf mortality rate (wheat; [3]): 50%
Leaf mortality rate (wheat; [4]): 5%
Environmental stress suppressing rate (wheat; test compound 0.1 mM): 6%
Leaf mortality rate (wheat; [5]): 44%
Leaf mortality rate (wheat; [6]): 0%
Environmental stress suppressing rate (wheat; test compound 1 mM): 17%
mortality rate due to drying stress, result in words (radish (Akamaru Hatsuka); 0.5 mM, drying stress): not suppressed
Leaf mortality rate (radish (Akamaru Hatsuka)): 73%
Environmental stress suppressing rate (radish (Akamaru Hatsuka)): 0%
leaf wilting rate due to low temperature stress, result in words (arugula; GB 1 mM and 0.1 mM, low temperature stress): hardly suppressed
Leaf wilting rate (arugula; [7]): 60%
Leaf wilting rate (arugula; [8]): 0%
Environmental stress suppressing rate (arugula; test compound 0.1 mM): 10%
Leaf wilting rate (arugula; [9]): 60%
Leaf wilting rate (arugula; [10]): 0%
Environmental stress suppressing rate (arugula; test compound 1 mM): 10%
mortality rate due to high temperature stress, result in words ([1]; 0.5 mM, high temperature stress): not suppressed
Mortality rate [1, 11]: 75%
Mortality rate [1, 12]: 0%
Environmental stress suppressing rate ([1]; test compound 0.5 mM): 0%
mortality rate due to freezing stress, result in words ([2]; 0.1 mM, freezing stress): not suppressed
Mortality rate [2, 13]: 63%
Mortality rate [2, 14]: 0%
Environmental stress suppressing rate ([2]; test compound 0.1 mM): 0%
